“And” between values parts separate entries of the source, which are not always exact repeats. Equal entries are not always repeated. Structures can show the parent of a compound that is named as a salt.
Key:
Parameters in all cases: species or system mice
[1] = system: clonogenic stem cells of the digestive epithelium; experiment: In vivo protection of intestinal epithelium clonogenic stem cells, chemotherapy drug (5-Flurouracil) damage
Method: In Vivo Protection of Intestinal Epithelium Clonogenic Stem Cells—Chemotherapy Drug Damage.
The ability of foscarnet (phosphonoformic acid trisodium salt hexahydrate) to prevent cytotoxic damage to clonogenic stem cells of the digestive epithelium was illustrated by the following experiment.
The model of cytotoxic insult used was treatment with 2 doses of 5-Flurouracil 6 hours apart at either 400 mg or 500 mg of 5-Fluorouracil/kilogram bodyweight. Such cytotoxic treatment provides a model of chemotherapy administered to patients undergoing treatment for cancer.
Five experimental groups, each of five mice, were established as set out below:
Group 1: Received intra-peritoneal injection, containing 50 mg foscarnet/kilogram bodyweight, in sterile water, one hour prior to the first cytotoxic treatment (400 mg 5-Flurouracil/kilogram bodyweight). Received one further identical injection on each of the three days following cytotoxic treatment. […]
Group 3: Vehicle control. Received intra-peritoneal injection, of sterile water, one hour prior to both cytotoxic treatments (400 mg 5-Flurouracil/kilogram bodyweight). Received one further identical injection on each of the three days following cytotoxic treatment. […]
(§1) On the fourth day after treatment the animals of each group were killed, and intestinal tissue harvested for histological analysis. Tissue sections were stained with haemotoxylin and eosin, and were analysed for the presence of regenerating intestinal crypts. Regenerating intestinal crypts are derived from one or more surviving clonogenic stem cells, whereas sterilised crypts (containing no surviving stem cells) disappear within two days of irradiation. The number of regenerating crypts per intestinal circumference was counted, and the mean crypt width measured. Scores for each animal were then corrected to account for the probability of preferentially scoring larger crypts according to the following equation: [formula]
(§2) For each treatment a Protection Factor was calculated using the following equation: corrected crypts/circumference treated corrected crypts/circumference untreated (vehicle)

[2] = system: clonogenic stem cells of the digestive epithelium; experiment: In vivo protection of intestinal epithelium clonogenic stem cells, radiation damage, independent experiment 2; details: for corrected crypts/circumference / no. crypts/circumference: day 4; for Protection Factor: 13Gy, corrected crypts treated / vehicle
Description: In Vivo Protection of Intestinal Epithelium Clonogenic Stem Cells—Radiation Damage Independent Experiment 2.
The ability of foscarnet (phosphonoformic acid trisodium salt hexahydrate) to prevent radiological damage to clonogenic stem cells of the digestive epithelium was illustrated by the following experiment.
The model of radiological insult used was treatment with 13 Gy X-ray whole body radiation at a dose rate of 0.7 Gy/minute. Such radiation treatment provides a model of radiotherapy administered to patients undergoing treatment for cancer.
Three experimental groups, each of six mice, were established as set out below:
Group 1: Received intra-peritoneal injection, containing 50 mg foscarnet/kilogram bodyweight, in sterile water, one hour prior to radiation treatment. Received one further identical injection on each of the three days following radiation treatment.
Group 2: Received intra-peritoneal injection, containing 25 mg foscarnet/kilogram bodyweight, in sterile water, one hour prior to radiation treatment. Received one further identical injection on each of the three days following radiation treatment.
Group 3: Vehicle control. Received intra-peritoneal injection, of sterile water, one hour prior to radiation treatment. Received one further identical injection on each of the three days following radiation treatment.
as §1, §2

oral mucosa = experiment: In vivo protection of oral mucosa following chemotherapy (5FU) damage, ventral tongue cellularity; details: 50 mg/kg intra-peritoneal 1 hr prior to 5FU (400 mg/kg x 2) and daily for three days; versus vehicle
Method: In Vivo Protection of Oral Mucosa Following Chemotherapy Damage. The ability of foscarnet (phosphonoformic acid trisodium salt hexahydrate) to prevent cytotoxic damage to oral mucosa was illustrated by the following experiment. The model of cytotoxic insult used was treatment with 2 doses of 400 mg/kilogram bodyweight 5-Flurouracil 6 hours apart. Such cytotoxic treatment provides a model of chemotherapy administered to patients undergoing treatment for cancer. Experimental groups, each of five mice, were established as set out below: Group 2: Received intra-peritoneal injection, containing 50 mg foscarnet/kilogram bodyweight, in sterile water, one hour prior to the first cytotoxic treatment (400 mg 5-Flurouracil/kilogram bodyweight). Received one further identical injection of foscarnet (50 mg/kilogram bodyweight) on each of the three days following cytotoxic treatment. […] Tissue sections were stained with thionin and using a Zeiss AxioHOME the number of cells were assessed in both the basal and suprabasal layers of the ventral surface of the tongue. The area from the basal layer to the stratum corneum stratum granulosum interface was measured along with the length of the basal layer. […] From these measurements the damage that the 5FU had caused to the tongue could be assessed as overall cellularity of the tongue or the total number of cells/unit area (mm^2). […]

[3] = 50 mg foscarnet 1 hr prior to 1st dose of 5-Flurouracil (400 mg/kg x 2 6 hrs apart) and D1, D2, D3, group Average
[4] = 50 mg foscarnet 1 hr prior to 1st dose of 5-Flurouracil (400 mg/kg x 2 6 hrs apart) and D1, D2, D3, individual mice
[5] = 50 mg foscarnet 1 hr prior to both doses of 5-Flurouracil (400 mg/kg x 2 6 hrs apart) and D1, D2, D3, group Average
[6] = 50 mg foscarnet 1 hr prior to both doses of 5-Flurouracil (400 mg/kg x 2 6 hrs apart) and D1, D2, D3, individual mice
[7] = 50 mg foscarnet 1 hr prior to both doses of 5-Flurouracil (500 mg/kg x 2 6 hrs apart) and D1, D2, D3, group Average
[8] = 50 mg foscarnet 1 hr prior to both doses of 5-Flurouracil (500 mg/kg x 2 6 hrs apart) and D1, D2, D3, individual mice
[9] = group 1: 50 mg/kg foscarnet 1 hr prior to first 5-Flurouracil dose (400 mg/kg x 2) and 3 days after
[10] = 13Gy plus 25 mg foscarnet -1 hr, 1, 2, 3 day, group Average
[11] = 13Gy plus 25 mg foscarnet -1 hr, 1, 2, 3 day, individual mice
[12] = 13Gy plus 50 mg foscarnet -1 hr, 1, 2, 3 day, group Average
[13] = 13Gy plus 50 mg foscarnet -1 hr, 1, 2, 3 day, individual mice

With `O=C(O)P(=O)(O)O` [foscarnet, phosphonoformic acid trisodium salt hexahydrate] the “Protection Factor” value ([1]; 50 mg foscarnet 1 hr prior to 1st dose of 5-Flurouracil (400 mg/kg x 2 6 hrs apart) and D1, D2 & D3) was 1.87, the corrected crypts/circumference [1, 3] was 20.0 and the no. crypts/circumference [1, 3] was 21.5. For the same compound, the corrected crypts/circumference [1, 4] was 11.0 and 23.2 and 17.2 and 16.5 and 32.1, the no. crypts/circumference [1, 4] was 12.4 and 24.1 and 17.9 (2×) and 35.2 and the “Protection Factor” value ([1]; 50 mg foscarnet 1 hr prior to both doses of 5-Flurouracil (400 mg/kg x 2 6 hrs apart) and D1, D2 & D3) was 1.59. The corrected crypts/circumference [1, 5] was 17.0, the no. crypts/circumference [1, 5] was 18.1 and the corrected crypts/circumference [1, 6] was 14.3 and 16.3 and 20.6 and 11.4 and 22.5. The no. crypts/circumference [1, 6] was 15.9 and 16.8 and 22.8 and 11.4 and 23.4, the “Protection Factor” value ([1]; 50 mg foscarnet 1 hr prior to both doses of 5-Flurouracil (500 mg/kg x 2 6 hrs apart) and D1, D2 & D3) was 1.46 and the corrected crypts/circumference [1, 7] was 10.2. The no. crypts/circumference [1, 7] was 10.5, the corrected crypts/circumference [1, 8] was 8.5 and 13.0 and 16.3 and 5.6 and 7.6 and the no. crypts/circumference [1, 8] was 8.5 and 13.0 and 17.9 and 6.0 and 7.3. For the same compound, the “numbers of intestinal crypts after exposure to 5-Flurouracil” value ([1]; Groups 1, 2 and 4 (50 mg foscarnet/kg regimens)) was “increased numbers of intestinal crypts”, the “more crypts compared to mice treated with vehicle alone” value [1, 9] was ~50% and the “more small intestinal clonogenic stem cells survived” value [1, 9] was “at least 50%”. The corrected crypts/circumference [2, 10] was 2.8, the no. crypts/circumference [2, 10] was 5.7 and the corrected crypts/circumference [2, 11] was 1.4 and 2.0 and 2.7 and 4.4 and 3.0 and 3.3. For the same compound, the no. crypts/circumference [2, 11] was 2.6 and 4.1 and 5.4 and 9.4 and 6.3 and 6.4, the corrected crypts/circumference [2, 12] was 4.7 and the no. crypts/circumference [2, 12] was 8.8. For the same compound, the corrected crypts/circumference [2, 13] was 6.5 and 4.4 and 2.7 and 1.9 and 5.4 and 7.5, the no. crypts/circumference [2, 13] was 11.8 and 8.7 and 5.2 and 4.1 and 9.6 and 13.2 and the “Protection Factor” value ([2]; 25 mg foscarnet -1 hr, 1, 2, 3 day) was 1.12. The “Protection Factor” value ([2]; 50 mg foscarnet -1 hr, 1, 2, 3 day) was 1.88, the “more crypts compared to mice treated with vehicle alone” value ([2]; 13 Gy, 50 mg/kg foscarnet) was ~50% and the “more small intestinal clonogenic stem cells survived” value ([2]; 13 Gy, 50 mg/kg foscarnet) was “at least 50%”. For the same compound, the “numbers of intestinal crypts after exposure to radiation” value ([2]; Groups 1 and 2 (50 mg foscarnet and 25 mg foscarnet), 13 Gy) was “increased numbers of intestinal crypts” and the “numbers of cells per unit area in the epithelium covering the ventral surface of the tongue (FIG. 4)” value (oral mucosa) was “extra cells per unit area gained”.
